Laboratory results from EPA's ToxValDB 9.5 (doi:10.2903/j.efsa.2017.4874).
Values after ≈ are worked out from the molar mass of the structure shown.

Assays:
Folsomia candida = details: chronic/long-term; mortality
Oncorhynchus mykiss = details: acute; duration: 96 hours; mortality
Oryctolagus sp. = details: developmental; development
Daphnia magna = details: chronic/long-term; duration: 21 days; reproduction
Anas platyrhynchos = details: short-term; oral; feed; mortality
Danio rerio = details: subchronic; duration: 35 days; reproduction
Mus musculus = details: chronic
Tagia sp. = details: chronic/long-term; growth
Apis mellifera = details: acute, mortality
Rattus norvegicus = details: oral
Colinus virginianus = details: for LD50: acute, oral, mortality
Aphidius rhopalosiphi = assay: LR50; higher = less toxic; details: not reported; mortality

## O=C(Nc1ccccc1)Nc1ccnc(Cl)c1 [Forchlorfenuron]
Folsomia candida
  NOEC: 3.72 mg/kg
Oncorhynchus mykiss
  LC50: 1.93 µg/mL (≈ 7.79 µM)
Oryctolagus sp.
  NOAEL: 50 mg/kg-day
Daphnia magna
  NOEC: 1.96 mg/L
Anas platyrhynchos
  LD50: > 3120 mg/kg-day
Danio rerio
  NOEC: 1.01 mg/L
Mus musculus; duration: 24 months, histopathology: neoplastic
  NOAEL: 5 mg/kg-day
Mus musculus; histopathology: nonneoplastic
  NOAEL: 4.9 mg/kg-day
Tagia sp.
  NOEC: 0.3 mg/kg
Apis mellifera; dermal
  LD50: > 30 µg/piece
Apis mellifera; oral, unspecified
  LD50: > 34.1 µg/piece
Rattus norvegicus; acute, mortality
  LD50: 4920 mg/kg-day
Rattus norvegicus; reproduction developmental, diet, body weight
  NOAEL: 11 mg/kg-day
Rattus norvegicus; subchronic, duration: 90 days, organ weight
  NOAEL: 16.2 mg/kg-day
Colinus virginianus; diet
  LD50: > 3120 mg/kg-day
Colinus virginianus
  LD50: > 2250 mg/kg-day
Colinus virginianus; reproduction developmental
  NOEC: 88.4 mg/kg-day
Aphidius rhopalosiphi
  LR50: > 10 g/ha
